Values joined by “and” are separate entries in the source; they are usually repeats but may differ in a detail not shown here. Equal entries are not always repeated.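 Protocol summary: plate cells (96-well), add compound at 5 concentrations, incubate 48 h, interpolate endpoints linearly. At the GI50, growth is halved. The concentration for full growth arrest is given as TGI.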
Experiments:
Assay in all cases: DTP human tumour cell line panel, 48 h
786-0 renal = test system: 786-0 renal
ACHN renal = test system: ACHN renal
HOP-62 NSCLC = test system: HOP-62 NSCLC
KM12 colon = test system: KM12 colon
NCI-H460 lung = test system: NCI-H460 lung
OVCAR-5 ovarian = test system: OVCAR-5 ovarian
SK-OV-3 ovarian = test system: SK-OV-3 ovarian
SW-620 colon = test system: SW-620 colon
KM20L2 colon = test system: KM20L2 colon
LXFL 529 NSCLC = test system: LXFL 529 NSCLC

Row | SMILES | GI50 (786-0 renal) | TGI (786-0 renal) | GI50 (ACHN renal) | TGI (ACHN renal) | GI50 (HOP-62 NSCLC) | TGI (HOP-62 NSCLC) | GI50 (KM12 colon) | TGI (KM12 colon) | GI50 (NCI-H460 lung) | TGI (NCI-H460 lung) | GI50 (OVCAR-5 ovarian) | TGI (OVCAR-5 ovarian) | GI50 (SK-OV-3 ovarian) | TGI (SK-OV-3 ovarian) | GI50 (SW-620 colon) | TGI (SW-620 colon) | TGI (KM20L2 colon) [µM] | TGI (LXFL 529 NSCLC) [µM]
1 | C=C(CN1CCN(c2ccccc2C(F)(F)F)CC1)c1ccc(C(=O)Nc2ccccc2N)cc1 | 2.36 µM | 15.1 µM | 7.19 µM | > 100 µM | 4.76 µM | > 44.4 µM | 2.04 µM | 11.7 µM | 5.59 µM | 43.6 µM | 11.8 µM | > 100 µM | 11 µM | > 100 µM | 3.4 µM | > 65.9 µM |  | 
2 | Fc1ccc(C2SCc3nc4ccccc4n32)cc1F (stereo not given) |  | > 100 µM |  | > 100 µM |  | > 100 µM |  | > 100 µM |  | > 100 µM |  |  |  | > 100 µM |  | > 100 µM | > 100 | > 100
3 | O=C(/C=C/c1cccc(S(=O)(=O)Nc2ccccc2)c1)NO | 2.17 µM and 0.934 µM | 12.6 µM and 11.2 µM | 0.429 µM and 0.422 µM | 3.22 µM and 8.44 µM | 0.529 µM and 0.325 µM | 13.1 µM and 5.34 µM | 0.426 µM and 0.0714 µM | 9.14 µM and 10.7 µM | 0.376 µM and 0.116 µM | 34 µM and 5.42 µM | 0.428 µM and 0.146 µM | 13.2 µM and > 16.9 µM | 0.457 µM and 0.486 µM | 6.64 µM and > 29.4 µM | 0.227 µM and 0.0308 µM | 9.27 µM and > 47.1 µM |  | 
4 | O=C(O)CCC1CCc2cccc(OCC(=O)O)c2C1=O (stereo not given) |  | > 100 µM |  | > 100 µM |  | > 100 µM |  |  |  | > 100 µM |  |  |  | > 100 µM |  | > 100 µM | > 100 | > 100
5 | O=Cc1ccc(-c2ccc(-c3ccc(C=O)o3)[se]2)o1 | 53.2 µM | > 100 µM | 45.5 µM | > 100 µM | 57.5 µM | > 100 µM | > 100 µM | > 100 µM | > 100 µM | > 100 µM | > 85.2 µM | > 100 µM | > 85.8 µM | > 100 µM | > 100 µM | > 100 µM |  | 
6 | COc1cc(/C=C/C(=O)c2c(C)nc3ccccc3c2C)ccc1OCCCCOc1cc2c(cc1OC)C(=O)N1CCC[C@H]1C=N2 | 0.602 µM | 1.86 µM | 1.46 µM | 3.22 µM | 1.71 µM | 6.93 µM | 0.308 µM | 0.839 µM | 0.832 µM | 2.58 µM | 0.528 µM | 3.35 µM | 1.18 µM | 3.08 µM | 0.203 µM | 0.538 µM |  | 
7 | CS(=N)(=O)CCC(N)P(=O)(O)O (stereo not given) |  | > 100 µM |  | > 100 µM |  | > 100 µM |  | > 100 µM |  | > 100 µM |  | > 100 µM |  | > 100 µM |  | > 100 µM |  | 
8 | O=C(/C=C/c1nnc2n(Cc3ccccc3)c(=O)c3c4c(sc3n12)CCCC4)c1ccccc1 | 1.56 µM and 2.36 µM |  | 3.9 µM |  |  | > 100 µM | 4.1 µM |  | > 100 µM | > 100 µM | > 100 µM | > 100 µM | > 100 µM | > 100 µM | 3.14 µM |  |  | 
9 | CCOC(=O)[C@@H](C)C[C@H](Cc1ccccc1)NC(=O)c1csc([C@@H](C[C@H](C(C)C)N(C)C(=O)[C@@H](NC(=O)[C@H]2C[C@H](O)CCN2C)C(C)C)OC(C)=O)n1 | 0.0273 µM | > 16.7 µM | 0.106 µM | > 16.7 µM | 0.0146 µM | > 16.7 µM | 0.0023 µM |  | 0.0063 µM | > 16.7 µM | 0.015 µM | > 16.7 µM | 0.00474 µM | > 16.7 µM | 0.00417 µM | > 16.7 µM |  | 
